Source: ChEMBL document CHEMBL2069221, “Hybrid molecules of carvacrol and benzoyl urea/thiourea with potential applications in agriculture and medicine” (Bioorg Med Chem Lett, 2012)
Converted amounts (≈) assume the structure as drawn.

How the values were obtained:
Candida albicans [1] = experiment: Antifungal activity against Candida albicans NCIM 3557 after 48 hrs by microbroth dilution method; format: functional
Cryptococcus neoformans [2] = experiment: Antifungal activity against Cryptococcus neoformans NCIM 3542 after 48 hrs by microbroth dilution method; format: functional
Dysdercus koenigii = experiment: Insecticidal activity against 5th instar nymph of Dysdercus koenigii assessed as mortality per nymph; format: functional
[3] = Toxicity in RBC assessed as induction of hemolysis at MIC; format: cell-based, Erythrocyte; details: red blood cells (RBC); read-out: Activity
[4] = Antifungal activity against Pichia membranifaciens after 48 hrs by microbroth dilution method; format: functional
Cryptococcus neoformans [5] = experiment: Antifungal activity against Cryptococcus neoformans NCIM 3378 after 48 hrs by microbroth dilution method; format: functional
[6] = Toxicity in RBC assessed as induction of hemolysis; format: cell-based, Erythrocyte; details: red blood cells (RBC)
Cryptococcus neoformans [7] = experiment: Antifungal activity against Cryptococcus neoformans NCIM 3541 after 48 hrs by microbroth dilution method; format: functional
Pyricularia grisea = experiment: Antifungal activity against Magnaporthe grisea after 48 hrs by microbroth dilution method; format: functional
Cryptococcus neoformans [8] = experiment: Antifungal activity against Cryptococcus neoformans after 48 hrs by microbroth dilution method; format: functional
Debaryomyces hansenii = experiment: Antifungal activity against Debaryomyces hansenii after 48 hrs by microbroth dilution method; format: functional
Drechslera = experiment: Antifungal activity against Dreschlera oryzae after 48 hrs by microbroth dilution method; format: functional
Fusarium oxysporum = experiment: Antifungal activity against Fusarium oxysporum after 48 hrs by microbroth dilution method; format: functional
Candida albicans [9] = experiment: Antifungal activity against Candida albicans NCIM 3471 after 48 hrs by microbroth dilution method; format: functional
Nakaseomyces glabratus = experiment: Antifungal activity against Candida glabrata NCIM 3237 after 48 hrs by microbroth dilution method; format: functional
Candida albicans [10] = experiment: Antifungal activity against Candida albicans after 48 hrs by microbroth dilution method; format: functional

Cc1cc(NC(=S)NC(=O)c2ccc(Cl)cc2)c(C(C)C)cc1O
GI (Candida albicans [1]): 64 µg/mL
GI (Cryptococcus neoformans [2]): 32 µg/mL
LD50 (Dysdercus koenigii): 20.8 µg
hemolysis [3]: < 2%
MIC [4]: 512 µg/mL (≈ 1410 µM)
GI (Cryptococcus neoformans [5]): 32 µg/mL
HC50 [6]: > 1000 µg/mL
GI (Cryptococcus neoformans [7]): 8 µg/mL
MIC (Pyricularia grisea): 256 µg/mL (≈ 705 µM)
GI (Cryptococcus neoformans [8]): 64 µg/mL
MIC (Debaryomyces hansenii): 256 µg/mL (≈ 705 µM)
MIC (Drechslera): > 512 µg/mL
MIC (Fusarium oxysporum): 128 µg/mL (≈ 353 µM)
GI (Candida albicans [9]): 32 µg/mL
GI (Nakaseomyces glabratus): 32 µg/mL
GI (Candida albicans [10]): 16 µg/mL

Cc1cc(NC(=S)NC(=O)c2ccccc2Cl)c(C(C)C)cc1O
GI (Candida albicans [1]): 64 µg/mL
GI (Cryptococcus neoformans [2]): 64 µg/mL
LD50 (Dysdercus koenigii): 13 µg
hemolysis [3]: < 2%
MIC [4]: 512 µg/mL (≈ 1410 µM)
GI (Cryptococcus neoformans [5]): >512 µg/mL
HC50 [6]: > 1000 µg/mL
GI (Cryptococcus neoformans [7]): 32 µg/mL
MIC (Pyricularia grisea): > 512 µg/mL
GI (Cryptococcus neoformans [8]): 128 µg/mL
MIC (Debaryomyces hansenii): > 512 µg/mL
MIC (Drechslera): > 512 µg/mL
MIC (Fusarium oxysporum): > 512 µg/mL
GI (Candida albicans [9]): >512 µg/mL
GI (Nakaseomyces glabratus): 64 µg/mL
GI (Candida albicans [10]): 64 µg/mL

Cc1cc(NC(=O)NC(=O)c2ccc(F)cc2)c(C(C)C)cc1O
GI (Candida albicans [1]): >512 µg/mL
GI (Cryptococcus neoformans [2]): 16 µg/mL
LD50 (Dysdercus koenigii): 14.9 µg
hemolysis [3]: < 2%
MIC [4]: > 512 µg/mL
GI (Cryptococcus neoformans [5]): 16 µg/mL
HC50 [6]: > 1000 µg/mL
GI (Cryptococcus neoformans [7]): <4 µg/mL
MIC (Pyricularia grisea): > 512 µg/mL
GI (Cryptococcus neoformans [8]): >512 µg/mL
MIC (Debaryomyces hansenii): > 512 µg/mL
MIC (Drechslera): > 512 µg/mL
MIC (Fusarium oxysporum): > 512 µg/mL
GI (Candida albicans [9]): 32 µg/mL
GI (Nakaseomyces glabratus): 16 µg/mL
GI (Candida albicans [10]): 16 µg/mL

Cc1ccc(C(C)C)cc1O [CARVACROL]
GI (Candida albicans [1]): 128 µg/mL
GI (Cryptococcus neoformans [2]): 128 µg/mL
LD50 (Dysdercus koenigii): 33.3 µg
MIC [4]: 128 µg/mL (≈ 852 µM)
GI (Cryptococcus neoformans [5]): 128 µg/mL
HC50 [6]: 250 µg/mL
GI (Cryptococcus neoformans [7]): 128 µg/mL
MIC (Pyricularia grisea): 128 µg/mL (≈ 852 µM)
GI (Cryptococcus neoformans [8]): 128 µg/mL
MIC (Debaryomyces hansenii): 128 µg/mL (≈ 852 µM)
MIC (Drechslera): 64 µg/mL (≈ 426 µM)
MIC (Fusarium oxysporum): 64 µg/mL (≈ 426 µM)
GI (Candida albicans [9]): 256 µg/mL
GI (Nakaseomyces glabratus): 128 µg/mL
GI (Candida albicans [10]): 128 µg/mL

Cc1cc(NC(=O)NC(=O)c2ccccc2F)c(C(C)C)cc1O
GI (Candida albicans [1]): >512 µg/mL
GI (Cryptococcus neoformans [2]): 16 µg/mL
LD50 (Dysdercus koenigii): 12.5 µg
hemolysis [3]: < 2%
MIC [4]: > 512 µg/mL
GI (Cryptococcus neoformans [5]): 16 µg/mL
HC50 [6]: > 1000 µg/mL
GI (Cryptococcus neoformans [7]): <4 µg/mL
MIC (Pyricularia grisea): > 512 µg/mL
GI (Cryptococcus neoformans [8]): >512 µg/mL
MIC (Debaryomyces hansenii): > 512 µg/mL
MIC (Drechslera): > 512 µg/mL
MIC (Fusarium oxysporum): > 512 µg/mL
GI (Candida albicans [9]): 32 µg/mL
GI (Nakaseomyces glabratus): 16 µg/mL
GI (Candida albicans [10]): 16 µg/mL

Cc1cc(NC(=S)NC(=O)c2ccccc2F)c(C(C)C)cc1O
GI (Candida albicans [1]): 128 µg/mL
GI (Cryptococcus neoformans [2]): 128 µg/mL
LD50 (Dysdercus koenigii): 12.6 µg
hemolysis [3]: < 2%
MIC [4]: > 512 µg/mL
GI (Cryptococcus neoformans [5]): 512 µg/mL
HC50 [6]: > 1000 µg/mL
GI (Cryptococcus neoformans [7]): 64 µg/mL
MIC (Pyricularia grisea): 256 µg/mL (≈ 739 µM)
GI (Cryptococcus neoformans [8]): 32 µg/mL
MIC (Debaryomyces hansenii): 256 µg/mL (≈ 739 µM)
MIC (Drechslera): > 512 µg/mL
MIC (Fusarium oxysporum): 128 µg/mL (≈ 369 µM)
GI (Candida albicans [9]): >512 µg/mL
GI (Nakaseomyces glabratus): 128 µg/mL
GI (Candida albicans [10]): 128 µg/mL

Cc1cc(NC(=O)NC(=O)c2ccccc2Cl)c(C(C)C)cc1O
GI (Candida albicans [1]): 128 µg/mL
GI (Cryptococcus neoformans [2]): 128 µg/mL
LD50 (Dysdercus koenigii): 16.4 µg
hemolysis [3]: < 2%
MIC [4]: 256 µg/mL (≈ 738 µM)
GI (Cryptococcus neoformans [5]): 128 µg/mL
HC50 [6]: > 1000 µg/mL
GI (Cryptococcus neoformans [7]): 256 µg/mL
MIC (Pyricularia grisea): > 512 µg/mL
GI (Cryptococcus neoformans [8]): 256 µg/mL
MIC (Debaryomyces hansenii): 128 µg/mL (≈ 369 µM)
MIC (Drechslera): 256 µg/mL (≈ 738 µM)
MIC (Fusarium oxysporum): 512 µg/mL (≈ 1480 µM)
GI (Candida albicans [9]): >512 µg/mL
GI (Nakaseomyces glabratus): >512 µg/mL
GI (Candida albicans [10]): 256 µg/mL

O=C(NC(=O)c1c(F)cccc1F)Nc1cc(Cl)c(OC(F)(F)C(F)C(F)(F)F)cc1Cl (stereo unspecified) [LUFENURON]
GI (Candida albicans [1]): >512 µg/mL
GI (Cryptococcus neoformans [2]): >512 µg/mL
LD50 (Dysdercus koenigii): 9 µg
MIC [4]: > 512 µg/mL
GI (Cryptococcus neoformans [5]): >512 µg/mL
HC50 [6]: > 1000 µg/mL
GI (Cryptococcus neoformans [7]): >512 µg/mL
MIC (Pyricularia grisea): > 512 µg/mL
GI (Cryptococcus neoformans [8]): >512 µg/mL
MIC (Debaryomyces hansenii): > 512 µg/mL
MIC (Drechslera): > 512 µg/mL
MIC (Fusarium oxysporum): > 512 µg/mL
GI (Candida albicans [9]): >512 µg/mL
GI (Nakaseomyces glabratus): >512 µg/mL
GI (Candida albicans [10]): >512 µg/mL
